Assay results: US12433953B2, “Compositions and methods related to tumor activated antibodies targeting EGFR and effector cell antigens” (Janux Therapeutics, Inc., priority 2021, dated 2025)
Where two headings read alike, the source gives them in different places. Values belong to the compound of their own block, whether it stands above or below them.

Tests used:
[1] = target: EGFR IgG binding to the EGFR antigen; assay: ELISA competitive inhibition of EGFR IgG binding to EGFR antigen; settings: for IC50: read-out: IC50 for peptide inhibition of EGFR IgG binding to EGFR antigen, Table 13
[2] = target: EGFR IgG; assay: ELISA binding of peptides to EGFR IgG; settings: Table 12; antibody concentration for half maximal signal; read-out: EC50 for peptide binding to EGFR IgG
[3] = target: EGFR Fab; assay: ELISA binding of peptides to EGFR Fab; settings: for EC50: read-out: EC50 for peptide binding to αEGFR Fab
[4] = target: EGFR Fab binding to the EGFR antigen; assay: ELISA competitive inhibition of EGFR Fab binding to EGFR antigen; settings: for IC50: read-out: IC50 for peptide inhibition of αEGFR Fab binding to EGFR antigen; for potency as peptide mask (in words): binding and inhibition data relative to peptide-8
[5] = Table 27, peptide-8 optimization
[6] = Table 25, peptide-8 optimization

IC50 [1]: > 0.3 µM | EC50 [2]: 0.052 µM
Structure (SMILES): CSCC[C@@H]1NC(=O)[C@H](CC(C)C)NC(=O)[C@H](CO)NC(=O)[C@H](CCCNC(=N)N)NC(=O)[C@@H](NC(=O)[C@H](Cc2c[nH]c3ccccc23)NC(=O)[C@@H](N)CC(=O)O)CSSC[C@@H](C(=O)N2CCC[C@H]2C(=O)O)NC(=O)[C@H](CC(C)C)NC(=O)[C@H](CC(=O)O)NC(=O)[C@H]([C@@H](C)O)NC(=O)[C@H](Cc2ccc(O)cc2)NC(=O)[C@H](CO)NC1=O [Peptide-1]

IC50 [1]: > 0.3 µM | EC50 [2]: 0.084 µM
Structure (SMILES): CC[C@H](C)[C@@H]1NC(=O)[C@H](CC(C)C)NC(=O)[C@H](Cc2c[nH]cn2)NC(=O)[C@H](C)NC(=O)[C@H](CC(=O)O)NC(=O)[C@H](C)NC(=O)[C@@H](NC(=O)[C@H](CO)NC(=O)[C@@H](N)[C@@H](C)O)CSSC[C@@H](C(=O)N[C@@H](CO)C(=O)O)NC(=O)[C@H](CO)NC(=O)[C@@H]2CCCN2C(=O)[C@H](C)NC1=O [Peptide-2]

IC50 [1]: > 0.3 µM | EC50 [2]: 0.413 µM
Structure (SMILES): CC(C)[C@@H]1NC(=O)[C@H](CCCNC(=N)N)NC(=O)[C@H](CC(=O)O)NC(=O)[C@H](Cc2c[nH]c3ccccc23)NC(=O)[C@H](CCC(N)=O)NC(=O)[C@@H](NC(=O)[C@@H](N)CC(N)=O)CSSC[C@@H](C(=O)N[C@@H](CO)C(=O)O)NC(=O)[C@H](C)NC(=O)[C@H](Cc2ccc(O)cc2)NC(=O)[C@H]([C@@H](C)O)NC(=O)[C@H](Cc2c[nH]cn2)NC(=O)[C@H](CCC(=O)O)NC1=O [Peptide-3]

IC50 [1]: > 0.3 µM
Structure (SMILES): CSCC[C@@H]1NC(=O)[C@H](Cc2c[nH]cn2)NC(=O)[C@H](CO)NC(=O)CNC(=O)[C@H](CC(=O)O)NC(=O)[C@H](Cc2c[nH]cn2)NC(=O)[C@@H](NC(=O)[C@H](CO)NC(=O)[C@@H](NC(=O)[C@@H](N)Cc2c[nH]c3ccccc23)C(C)C)CSSC[C@@H](C(=O)N[C@@H](Cc2ccccc2)C(=O)N[C@@H](Cc2c[nH]cn2)C(=O)O)NC(=O)[C@H]([C@@H](C)O)NC1=O [Peptide-4]

IC50 [1]: > 0.3 µM | EC50 [2]: 0.002 µM
Structure (SMILES): CSCC[C@H](N)C(=O)N[C@@H](CC(N)=O)C(=O)N[C@H]1CSSC[C@@H](C(=O)N[C@@H](CC(C)C)C(=O)N[C@H](C(=O)O)C(C)C)NC(=O)[C@H](Cc2ccc(O)cc2)NC(=O)[C@H](CCC(=O)O)NC(=O)[C@H](C(C)C)NC(=O)[C@H](Cc2c[nH]c3ccccc23)NC(=O)[C@H](CC(C)C)NC(=O)[C@H](CCCNC(=N)N)NC(=O)[C@H](CC(N)=O)NC(=O)[C@H](CC(C)C)NC1=O [Peptide-5]

Structure (SMILES): CC(C)[C@@H]1NC(=O)[C@H](Cc2c[nH]c3ccccc23)NC(=O)[C@H]([C@@H](C)O)NC(=O)[C@H](CC(N)=O)NC(=O)[C@H](CC(=O)O)NC(=O)[C@H](CCC(N)=O)NC(=O)CNC(=O)[C@@H](NC(=O)[C@@H](N)Cc2ccc(O)cc2)CSSC[C@@H](C(=O)N[C@@H](Cc2ccccc2)C(=O)O)NC(=O)CNC(=O)[C@H](CCC(=O)O)NC(=O)[C@H](CCCNC(=N)N)NC1=O [Peptide-6]
inhibiting EGFR IgG binding to the EGFR antigen (in words) ([1]; among peptide-1 to peptide-6): most effective at inhibiting EGFR IgG binding to the EGFR antigen | EC50 [2]: 0.0003 µM | EC50 ([3]; Table 16): 0.458 µM

Structure (SMILES): CSCC[C@@H]1NC(=O)[C@H](CC(C)C)NC(=O)[C@H](Cc2ccccc2)NC(=O)[C@H](Cc2c[nH]cn2)NC(=O)[C@H](CCC(N)=O)NC(=O)[C@@H](NC(=O)CNC(=O)[C@@H](N)CC(C)C)CSSC[C@@H](C(=O)NCC(=O)O)NC(=O)[C@H]([C@@H](C)O)NC(=O)[C@H](C)NC(=O)[C@H](CC(C)C)NC(=O)[C@H](CCCCN)NC1=O [Peptide-11]
IC50 ([4]; Table 17): > 0.3 µM | EC50 ([3]; Table 15): 0.042 µM

Structure (SMILES): CSCC[C@@H]1NC(=O)[C@H](CCCNC(=N)N)NC(=O)[C@H](C(C)C)NC(=O)[C@H](CCSC)NC(=O)[C@H](CCCNC(=N)N)NC(=O)[C@H](Cc2c[nH]cn2)NC(=O)[C@H](CC(C)C)NC(=O)CNC(=O)[C@H](CC(=O)O)NC(=O)CNC(=O)[C@@H](NC(=O)CN)CSSC[C@@H](C(=O)O)NC(=O)[C@H](Cc2c[nH]c3ccccc23)NC1=O [Peptide-12]
IC50 ([4]; Table 17): > 0.3 µM | EC50 ([3]; Table 15): > 1 µM

Structure (SMILES): CSCC[C@@H]1NC(=O)[C@H](C(C)C)NC(=O)[C@H]([C@@H](C)O)NC(=O)[C@@H](NC(=O)[C@H](C)N)CSSC[C@@H](C(=O)N[C@H](C(=O)O)C(C)C)NC(=O)[C@H](CCCNC(=N)N)NC(=O)[C@H](C(C)C)NC(=O)[C@H](CCC(=O)O)NC(=O)[C@H](CCC(N)=O)NC(=O)[C@H](CCCNC(=N)N)NC(=O)[C@H](C)NC(=O)CNC1=O [Peptide-13]
IC50 ([4]; Table 18): > 0.3 µM | EC50 ([3]; Table 16): > 1 µM

Structure (SMILES): CC[C@H](C)[C@@H]1NC(=O)[C@H](CC(C)C)NC(=O)[C@H](C)NC(=O)[C@@H]2CCCN2C(=O)[C@@H](NC(=O)[C@@H]2CCCN2)CSSC[C@@H](C(=O)N[C@H](C(=O)O)C(C)C)NC(=O)[C@H]([C@@H](C)CC)NC(=O)[C@H](C(C)C)NC(=O)[C@H](CCC(=O)O)NC(=O)[C@H](C)NC(=O)[C@H](C(C)C)NC(=O)[C@H](CC(=O)O)NC1=O [Peptide-14]
IC50 ([4]; Table 18): > 0.3 µM | EC50 ([3]; Table 16): > 1 µM

Structure (SMILES): CC(C)C[C@@H]1NC(=O)[C@H](CCC(N)=O)NC(=O)CNC(=O)[C@H](CCCNC(=N)N)NC(=O)[C@H](CCC(N)=O)NC(=O)[C@H](Cc2c[nH]c3ccccc23)NC(=O)[C@H](C(C)C)NC(=O)[C@H](CO)NC(=O)[C@H](CC(N)=O)NC(=O)[C@@H](NC(=O)[C@@H](N)Cc2ccc(O)cc2)CSSC[C@@H](C(=O)O)NC(=O)[C@H](Cc2c[nH]c3ccccc23)NC(=O)[C@H](Cc2ccc(O)cc2)NC1=O [Peptide-15]
IC50 ([4]; Table 18): > 0.3 µM | binding affinity for EGFR Fab (in words) ([3]; among peptides of Table 14): strongest binding affinities (lowest EC50s) | EC50 ([3]; Table 16): 0.007 µM

Structure (SMILES): CSCC[C@@H]1NC(=O)[C@H](Cc2c[nH]cn2)NC(=O)[C@H](CO)NC(=O)[C@@H](NC(=O)[C@@H](N)CCC(=O)O)CSSC[C@@H](C(=O)N[C@@H](CO)C(=O)O)NC(=O)[C@H](CC(C)C)NC(=O)[C@@H]2CCCN2C(=O)[C@H](Cc2c[nH]c3ccccc23)NC(=O)[C@H](CCCNC(=N)N)NC(=O)[C@H]([C@@H](C)O)NC(=O)CNC(=O)[C@H](CCC(=O)O)NC1=O [Peptide-16]
IC50 ([4]; Table 18): > 0.3 µM | EC50 ([3]; Table 16): 0.034 µM

Structure (SMILES): CC[C@H](C)[C@@H]1NC(=O)[C@@H]2CCCN2C(=O)[C@H](CCCCN)NC(=O)[C@H](C)NC(=O)[C@H]([C@@H](C)O)NC(=O)[C@H](CC(=O)O)NC(=O)[C@H](Cc2ccccc2)NC(=O)[C@H](Cc2c[nH]cn2)NC(=O)[C@H](CO)NC(=O)[C@H]([C@@H](C)O)NC(=O)[C@@H](NC(=O)[C@@H]2CCCN2)CSSC[C@@H](C(=O)N[C@@H](C)C(=O)O)NC1=O [Peptide-39]
IC50 [4, 5]: 2.79 µM | EC50 [3, 6]: 0.206 µM

Structure (SMILES): CC[C@H](C)[C@@H]1NC(=O)[C@@H]2CCCN2C(=O)[C@H](CCCCN)NC(=O)[C@H](C)NC(=O)[C@@H]2CCCN2C(=O)[C@H](CC(=O)O)NC(=O)[C@H](CC(N)=O)NC(=O)[C@H](Cc2c[nH]cn2)NC(=O)[C@H](CO)NC(=O)[C@H](CC(C)C)NC(=O)[C@@H](NC(=O)[C@@H]2CCCN2)CSSC[C@@H](C(=O)N[C@@H](C)C(=O)O)NC1=O [Peptide-41]
IC50 [4, 5]: 4.25 µM | EC50 [3, 6]: 0.292 µM

Structure (SMILES): CC[C@H](C)[C@@H]1NC(=O)[C@@H]2CCCN2C(=O)[C@H](CCCCN)NC(=O)[C@H](C)NC(=O)[C@H](CC(C)C)NC(=O)[C@H](CC(=O)O)NC(=O)[C@H](Cc2ccc(O)cc2)NC(=O)[C@H](Cc2c[nH]cn2)NC(=O)[C@H](CO)NC(=O)[C@H](CC(N)=O)NC(=O)[C@@H](NC(=O)[C@@H]2CCCN2)CSSC[C@@H](C(=O)N[C@H](C(=O)O)[C@@H](C)O)NC1=O [Peptide-43]
IC50 [4, 5]: 4.23 µM | EC50 [3, 6]: 0.186 µM

Structure (SMILES): CC[C@H](C)[C@@H]1NC(=O)[C@H](CC(=O)O)NC(=O)[C@H](Cc2ccccc2)NC(=O)[C@H](Cc2c[nH]cn2)NC(=O)[C@H](CO)NC(=O)[C@H](CC(N)=O)NC(=O)[C@@H](NC(=O)[C@@H]2CCCN2)CSSC[C@@H](C(=O)N[C@@H](CC(C)C)C(=O)O)NC(=O)[C@H]([C@@H](C)CC)NC(=O)[C@@H]2CCCN2C(=O)[C@H](CCCCN)NC(=O)[C@H](C)NC1=O [Peptide-44]
IC50 [4, 5]: 6.57 µM | EC50 [3, 6]: 0.341 µM

Structure (SMILES): CC[C@H](C)[C@@H]1NC(=O)[C@@H]2CCCN2C(=O)[C@H](CCCCN)NC(=O)[C@H](C)NC(=O)[C@@H]2CCCN2C(=O)[C@H](CC(=O)O)NC(=O)[C@H](CC(N)=O)NC(=O)[C@H](Cc2c[nH]cn2)NC(=O)[C@H](Cc2ccc(O)cc2)NC(=O)[C@H](C)NC(=O)[C@@H](NC(=O)[C@@H]2CCCN2)CSSC[C@@H](C(=O)N[C@@H](CO)C(=O)O)NC1=O [Peptide-45, PCAYHNDPAKPICS]
potency as peptide mask (in words) [4]: more potent peptide masks | IC50 [4, 5]: 0.543 µM | EC50 [3, 6]: 0.0103 µM

Structure (SMILES): CC[C@H](C)[C@@H]1NC(=O)[C@@H]2CCCN2C(=O)[C@H](CCCCN)NC(=O)[C@H](C)NC(=O)[C@@H]2CCCN2C(=O)[C@H](CC(=O)O)NC(=O)[C@H](Cc2ccccc2)NC(=O)[C@H](Cc2c[nH]cn2)NC(=O)[C@H](Cc2ccccc2)NC(=O)[C@H](CC(C)C)NC(=O)[C@@H](NC(=O)[C@@H]2CCCN2)CSSC[C@@H](C(=O)N[C@@H](CO)C(=O)O)NC1=O [Peptide-46, PCLFHFDPAKPICS]
potency as peptide mask (in words) [4]: more potent peptide masks | IC50 [4, 5]: 0.3 µM | EC50 [3, 6]: 0.0049 µM
